Measured values: ChEMBL document CHEMBL1221212, “Small-molecule activation of neuronal cell fate” (Nat Chem Biol, 2008)
The source made the active and inactive calls. No cut-off for these calls is given here.

Experiments:
HCN [1] = assay: Induction of rat HCN cell differentiation assessed as induction of neuronal reporter neuroD activity by luciferase reporter gene assay; format: functional, cell-based
HCN [2] = assay: Induction of rat HCN cell differentiation assessed as induction of neuronal reporter neuroD activity at 20 uM after 24 hrs by luciferase reporter gene assay; format: functional, cell-based
[3] = biological target: T1, Glutamate NMDA receptor (Rattus norvegicus) (UniProt P35439+Q00959+Q00960+Q00961+Q62645+Q8VHN2+Q9R1M7); assay: Induction of NMDA receptor-mediated neuroD gene expression in rat HCN cells at 50 uM after 24 hrs by RT-PCR analysis in presence of NMDA receptor antagonist nifedipine; format: functional, cell-based
HCN [4] = assay: Induction of rat HCN cell differentiation assessed as increase in Tuj1 gene expression after 1 day by RT-PCR analysis; format: functional, cell-based
HCN [5] = assay: Inhibition of gliogenesis differentiation in rat HCN cells at 25 uM after 4 days; format: functional, cell-based
HCN [6] = assay: Induction of neurogenesis in undifferentiated rat HCN cells assessed as MEF2C protein level at 8 to 64 uM after 9 hrs by protein blotting analysis; format: functional, cell-based
HCN [7] = assay: Effect on subcellular distribution of CREB protein in rat HCN cells after 5 days; format: functional, cell-based
P19CL6 [8] = assay: Induction of C57BL/6 mouse P19CL6 cell differentiation at 50 uM after 4 days; format: functional, cell-based
[9] = biological target: T1, Glutamate NMDA receptor (Rattus norvegicus); assay: Induction of NMDA receptor-mediated Ca2+ influx in rat HCN cells at 5 uM by Fura-2 imaging analysis in presence of NMDA receptor antagonist MK801; format: functional, cell-based
[10] = Induction of rat HCN cell differentiation assessed as upregulation of MEF2D expression after 2 to 4 days by protein blotting analysis; format: functional, cell-based
[11] = biological target: T1, Glutamate NMDA receptor (Rattus norvegicus); assay: Induction of NMDA receptor-mediated neuroD gene expression in rat HCN cells at 50 uM after 3 hrs by RT-PCR analysis in presence of NMDA receptor antagonist nifedipine; format: functional, cell-based
HCN [12] = assay: Induction of HDAC5 translocation in nucleus of rat HCN cells assessed as GFP-HDAC5 fusion protein accumulation at 20 uM by fluorescence assay; format: functional, cell-based
HCN [13] = assay: Induction of L-type calcium channel/NMDA receptor-mediated neuroD gene expression in rat HCN cells at 50 uM after 24 hrs by RT-PCR analysis in presence of multiple inhibitors; format: cell-based
[14] = Induction of rat HCN cell proliferation at 20 uM after 20 days by BrdU incorporation assay; format: functional
HCN [15] = assay: Induction of CAMK-mediated MREx3 activity in rat HCN cells by luciferase reporter gene assay in presence of 2.5 uM CAMK inhibitor KN93; format: cell-based
HCN [16] = assay: Induction of HDAC5 translocation in nucleus of rat HCN cells assessed as GFP-HDAC5 S258A S498A mutant fusion protein accumulation at 5 uM by fluorescence assay; format: functional, cell-based
[17] = Induction of rat HCN cell differentiation assessed as upregulation of MEF2C expression after 2 to 4 days by protein blotting analysis; format: functional, cell-based
HCN [18] = assay: Induction of rat HCN cell differentiation assessed as increase in MAP2AB gene expression after 9 days by RT-PCR analysis; format: functional, cell-based
HCN [19] = assay: Induction of L-type calcium channel/NMDA receptor-mediated Ca2+ influx in rat HCN cells at 5 uM by Fura-2 imaging analysis; format: cell-based
HCN [20] = assay: Induction of LIF/BMP2-mediated rat HCN cell differentiation into GFAP-positive astrocytes after 4 days; format: functional, cell-based
HCN [21] = assay: Induction of CAMK2 phosphorylation in rat HCN cells by Western blot analysis in presence of 2.5 uM CAMK inhibitor KN93; format: cell-based
HCN [22] = assay: Induction of rat HCN cell differentiation assessed as increase in GluR2 gene expression after 3 hrs by RT-PCR analysis; format: functional, cell-based
Neuronal progenitor cell [23] = assay: Induction of mouse progenitor cell differentiation into Map2ab-positive neurons at 20 uM after 4 days; format: functional, cell-based
HCN [24] = assay: Induction of L-type calcium channel/NMDA receptor-mediated Ca2+ influx in rat HCN cells at 5 uM by Fura-2 imaging analysis in presence of multiple of inhibitors; format: cell-based
HCN [25] = assay: Induction of CAMK-mediated MREx3 activity in rat HCN cells by luciferase reporter gene assay in presence of 2.5 uM potassium channel inhibitor KN92; format: cell-based
HCN [26] = assay: Induction of rat HCN cell differentiation assessed as increase in GluR2 gene expression after 1 day by RT-PCR analysis; format: functional, cell-based
[27] = Cytotoxicity in rat HCN cells at 20 uM after 4 days; format: cell-based; settings: 96 h
HCN [28] = assay: Induction of rat HCN cell differentiation assessed as increase in Tuj1 gene expression after 3 hrs by RT-PCR analysis; format: functional, cell-based
HCN [29] = assay: Induction of L-type calcium channel/NMDA receptor-mediated neuroD gene expression in rat HCN cells at 50 uM after 3 hrs by RT-PCR analysis in presence of multiple inhibitors; format: cell-based
HCN [30] = assay: Induction of rat HCN cell differentiation assessed as increase in beta-TUB3 gene expression after 9 days by RT-PCR analysis; format: functional, cell-based
HCN [31] = assay: Induction of rat HCN cell differentiation assessed as increase in NR1 gene expression after 1 day by RT-PCR analysis; format: functional, cell-based
Neuronal progenitor cell [32] = assay: Induction of mouse neuronal progenitor cell differentiation at 25 uM after 4 days; format: functional, cell-based
HCN [33] = assay: Induction of L-type calcium channel/NMDA receptor-mediated Ca2+ influx in rat HCN cells in presence multiple inhibitors; format: cell-based
HCN [34] = assay: Induction of rat HCN cell differentiation assessed as increase in Tuj1 gene expression after 3 days by RT-PCR analysis; format: functional, cell-based
HCN [35] = assay: Induction of rat HCN cell differentiation assessed as increase in neuroD gene expression after 1 day by RT-PCR analysis; format: functional, cell-based
HCN [36] = assay: Induction of CAMK-mediated HDAC5 phosphorylation in rat HCN cells by Western blot analysis in presence of 2.5 uM CAMK inhibitor KN93; format: cell-based
Rattus norvegicus = species: Rattus norvegicus; assay: Induction of rat HCN differentiation into Tuj1 neurons at 25 uM after 4 days; format: functional
[37] = Induction of rat HCN cell differentiation assessed as upregulation of MEF2A expression after 2 to 4 days by protein blotting analysis; format: functional, cell-based
HCN [38] = assay: Induction of rat HCN cell differentiation assessed as increase in GluR2 gene expression after 3 days by RT-PCR analysis; format: functional, cell-based
HCN [39] = assay: Induction of neurogenesis in undifferentiated rat HCN cells assessed as MEF2A protein level at 8 to 64 uM after 9 hrs by protein blotting analysis; format: functional, cell-based
HCN [40] = assay: Induction of HDAC5 translocation in cytoplasm of rat HCN cells assessed as phosphorylated HDAC5 accumulation; format: functional, cell-based
[41] = biological target: T1, Glutamate NMDA receptor (Rattus norvegicus); assay: Induction of NMDA receptor-mediated neuroD gene expression in rat HCN cells at 50 uM after 24 hrs by RT-PCR analysis in presence of NMDA receptor antagonist MK801; format: functional, cell-based
HCN [42] = assay: Induction of rat HCN cell differentiation assessed as increase in neuroD gene expression at 10 uM after 3 hrs by RT-PCR analysis; format: functional, cell-based
HCN [43] = assay: Induction of rat HCN cell differentiation assessed as increase in neuroD gene expression after 3 hrs by RT-PCR analysis; format: functional, cell-based
HCN [44] = assay: Induction of HDAC5 phosphorylation in rat HCN cells after 24 hrs; format: functional, cell-based
HCN [45] = assay: Induction of neurogenesis in undifferentiated rat HCN cells assessed as MAP2AB protein level at 8 to 64 uM after 9 hrs by protein blotting analysis; format: functional, cell-based
HCN [46] = assay: Induction of rat HCN cell differentiation assessed as increase in p27Kip1 gene expression after 9 days by RT-PCR analysis; format: functional, cell-based
HCN [47] = assay: Effect on subcellular distribution of MEF2C protein in rat HCN cells after 5 days; format: functional, cell-based
HCN [48] = assay: Induction of neurogenesis in undifferentiated rat HCN cells assessed as GlR2/3 protein level at 8 to 64 uM after 9 hrs by protein blotting analysis; format: functional, cell-based
HCN [49] = assay: Induction of HDAC5 phosphorylation in rat HCN cells after 6 hrs; format: functional, cell-based
Neuronal progenitor cell [50] = assay: Induction of mouse progenitor cell differentiation into Tuj1 neurons at 20 uM after 4 days; format: functional, cell-based
HCN [51] = assay: Induction of rat HCN cell differentiation assessed as induction of induction of MREx3 gene expression by luciferase reporter gene assay; format: functional, cell-based
P19CL6 [52] = assay: Induction of mouse C57BL/6 P19CL6 cell differentiation assessed as induction of neuronal reporter gluR2 expression by luciferase reporter gene assay; format: functional, cell-based
HCN [53] = assay: Induction of LIF/BMP2-mediated rat HCN cell differentiation into Tuj1 neurons after 4 days; format: functional, cell-based
HCN [54] = assay: Induction of rat HCN cell differentiation into Tuj1 neurons at 20 uM after 4 days in presence of caspase inhibitor Q-VD-Oph; format: functional, cell-based
HCN [55] = assay: Induction of rat HCN cell differentiation assessed as increase in NR1 gene expression after 3 hrs by RT-PCR analysis; format: functional, cell-based
[56] = biological target: T1, Glutamate NMDA receptor (Rattus norvegicus); assay: Induction of NMDA receptor-mediated neuroD gene expression in rat HCN cells at 50 uM after 3 hrs by RT-PCR analysis in presence of NMDA receptor antagonist MK801; format: functional, cell-based
HCN [57] = assay: Induction of rat HCN cell differentiation assessed as increase in neuroD gene expression after 3 days by RT-PCR analysis; format: functional, cell-based
HCN [58] = assay: Induction of CAMK-mediated MREx3 activity in rat HCN cells by luciferase reporter gene assay in presence of 200 nM PKC inhibitor Go6976; format: cell-based
HCN [59] = assay: Effect on subcellular distribution of MEF2A protein in rat HCN cells after 5 days; format: functional, cell-based
[60] = biological target: T1, Glutamate NMDA receptor (Rattus norvegicus); assay: Induction of NMDA receptor-mediated Ca2+ influx in rat HCN cells in presence of NMDA receptor antagonist MK801; format: functional, cell-based
HCN [61] = assay: Inhibition of LIF/BMP2-mediated rat HCN cell differentiation into astrocytes at 25 uM; format: functional, cell-based
HCN [62] = assay: Induction of rat HCN cell differentiation assessed as increase in DCX gene expression after 9 days by RT-PCR analysis; format: functional, cell-based
HCN [63] = assay: Induction of L-type calcium channel/NMDA receptor-mediated Ca2+ influx in rat HCN cells; format: cell-based
HCN [64] = assay: Induction of rat HCN cell differentiation assessed as increase in NR1 gene expression after 3 days by RT-PCR analysis; format: functional, cell-based
P19CL6 [65] = assay: Induction of mouse C57BL/6 P19CL6 cell differentiation assessed as induction of neuronal reporter neuroD activity by luciferase reporter gene assay; format: functional, cell-based

## Cc1cc(C(=O)Nc2sc3c(c2C#N)CCCC3)no1
HCN [1]
  Activity: Dose-dependent effect

## O=C(NC1CCCC1)c1cc(-c2cccs2)on1
HCN [2]
  Activity: Active
HCN [1]
  Activity: Dose-dependent effect

## O=C(NC1CC1)c1cc(-c2cccs2)on1
[3]
  Activity: Active
HCN [4]
  Activity: Active
HCN [5]
  inhibition: Active
HCN [6]
  Activity: inactive
HCN [7]
  Activity: inactive
P19CL6 [8]
  Activity: Active
[9]
  Activity: Active
[10]
  Activity: Active
[11]
  Activity: Active
HCN [12]
  Activity: Active
HCN [13]
  Activity: Active
HCN [2]
  Activity: Active
[14]
  Activity: 40%
HCN [15]
  Activity: inactive
HCN [16]
  Activity: Active
[17]
  Activity: Active
HCN [18]
  Activity: Active
HCN [19]
  Activity: Active
HCN [20]
  inhibition: Active
HCN [21]
  Activity: inactive
HCN [22]
  Activity: Active
Neuronal progenitor cell [23]
  Activity: Active
HCN [24]
  Activity: Active
HCN [25]
  Activity: Active
HCN [26]
  Activity: Active
HCN [1]
  Activity: Dose-dependent effect
[27]
  Activity: 18%
HCN [28]
  Activity: Active
HCN [29]
  Activity: Active
HCN [30]
  Activity: Active
HCN [31]
  Activity: Active
Neuronal progenitor cell [32]
  Activity: Active
HCN [33]
  Activity: Active
HCN [34]
  Activity: Active
HCN [35]
  Activity: Active
HCN [36]
  Activity: inactive
Rattus norvegicus
  Activity: Active
[37]
  Activity: inactive
HCN [38]
  Activity: Active
HCN [39]
  Activity: inactive
HCN [40]
  Activity: Active
[41]
  Activity: Active
HCN [42]
  Activity: Active
HCN [43]
  Activity: Active
HCN [44]
  Activity: Active
HCN [45]
  Activity: Active
HCN [46]
  Activity: Active
HCN [47]
  Activity: inactive
HCN [48]
  Activity: Active
HCN [49]
  Activity: Active
Neuronal progenitor cell [50]
  Activity: Active
HCN [51]
  Activity: Dose-dependent effect
P19CL6 [52]
  Activity: Dose-dependent effect
HCN [53]
  Activity: Active
HCN [54]
  Activity: Active
HCN [55]
  Activity: Active
[56]
  Activity: Active
HCN [57]
  Activity: Active
HCN [58]
  Activity: Active
HCN [59]
  Activity: inactive
[60]
  Activity: Active
HCN [61]
  inhibition: Active
HCN [62]
  Activity: Active
HCN [63]
  Activity: Active
HCN [64]
  Activity: Active

## C=CCNC(=O)c1cc(-c2cccs2)on1
P19CL6 [65]
  Activity: Dose-dependent effect
